Measured values reported in ChEMBL document CHEMBL1201862, “PubChem BioAssay data set” (2004).
Calls of active or inactive are those of the source.

Assays:
[1] = target: Homeodomain-interacting protein kinase 2 (Homo sapiens, UniProt Q9H2X6); format: functional;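 also: measured within a kinome-wide kinase profiling panel, HIPK2 being one panel member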
[2] = target: Glycogen synthase kinase-3 beta (Homo sapiens, UniProt P49841); format: functional;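 also: value comes from a broad kinome profiling panel, with GSK3B as the panel member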
[3] = target: cAMP-dependent protein kinase catalytic subunit alpha (Homo sapiens, UniProt P17612); format: functional
[4] = target: Mitogen-activated protein kinase kinase kinase kinase 4 (Homo sapiens, UniProt O95819); format: functional
[5] = target: Interleukin-1 receptor-associated kinase 4 (Homo sapiens, UniProt Q9NWZ3); format: functional
Insulin-degrading enzyme [6] = target: T1, Insulin-degrading enzyme (Homo sapiens, UniProt P14735); test: activators of endogenous IDE in HEK cells, dose response, cell-based, fluorescence polarization (AID 588439); format: functional
T1 sequence (P14735 whole entry): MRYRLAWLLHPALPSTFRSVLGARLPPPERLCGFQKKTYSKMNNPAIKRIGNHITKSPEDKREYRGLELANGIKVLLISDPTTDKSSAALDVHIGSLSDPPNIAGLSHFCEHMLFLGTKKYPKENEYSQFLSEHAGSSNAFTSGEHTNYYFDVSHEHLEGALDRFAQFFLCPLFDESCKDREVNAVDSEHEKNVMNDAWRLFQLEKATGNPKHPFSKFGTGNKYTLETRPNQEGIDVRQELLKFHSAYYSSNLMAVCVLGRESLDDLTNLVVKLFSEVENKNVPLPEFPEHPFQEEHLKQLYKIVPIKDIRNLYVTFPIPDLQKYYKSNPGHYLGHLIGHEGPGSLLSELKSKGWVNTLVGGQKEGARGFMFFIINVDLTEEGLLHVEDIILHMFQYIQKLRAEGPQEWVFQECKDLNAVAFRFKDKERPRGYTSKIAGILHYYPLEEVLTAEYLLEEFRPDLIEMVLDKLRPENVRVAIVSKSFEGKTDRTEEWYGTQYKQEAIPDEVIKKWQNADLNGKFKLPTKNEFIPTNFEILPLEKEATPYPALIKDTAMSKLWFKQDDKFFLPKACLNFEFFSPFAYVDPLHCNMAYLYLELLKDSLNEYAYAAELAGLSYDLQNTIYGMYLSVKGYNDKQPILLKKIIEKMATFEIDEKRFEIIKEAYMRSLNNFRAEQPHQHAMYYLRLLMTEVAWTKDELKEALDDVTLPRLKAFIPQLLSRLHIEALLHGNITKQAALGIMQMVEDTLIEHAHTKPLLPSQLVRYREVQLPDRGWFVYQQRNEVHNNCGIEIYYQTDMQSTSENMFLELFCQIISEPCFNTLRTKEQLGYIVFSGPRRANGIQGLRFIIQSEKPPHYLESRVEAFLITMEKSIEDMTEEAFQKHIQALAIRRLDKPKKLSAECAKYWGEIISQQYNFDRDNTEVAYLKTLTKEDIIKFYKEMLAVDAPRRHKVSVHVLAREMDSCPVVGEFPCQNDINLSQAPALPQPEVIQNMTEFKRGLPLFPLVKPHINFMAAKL

[7] = target: T2, G-protein coupled receptor 55 (Homo sapiens, UniProt Q9Y2T6); test: GPR55 antagonists blocking LPI-driven arrestin recruitment, primary screen, imaging, U2OS, beta-arrestin-GFP, LPI agonist (AID 2013); format: functional;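 also: antagonist potency measured as reduced agonist-driven arrestin aggregation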
HEK293 [8] = test: optical interference in Abeta FP readout, dose response, artefact control for IDE activator project, biochemical, fluorescence polarization (AID 588442); format: functional, cell-based; conditions: Homo sapiens
Insulin-degrading enzyme [9] = target: T1, Insulin-degrading enzyme; test: activators of recombinant IDE enzyme, dose response, counter-screen for IDE activator project, biochemical, fluorescence polarization (AID 588681)
Beta-lactamase [10] = target: Beta-lactamase (Pseudomonas aeruginosa, UniProt Q79MP6);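 also: biochemical dose-response test of metallo-beta-lactamase enzyme inhibition, read out by epi-absorbance; purified recombinant IMP-1 metallo-beta-lactamase with nitrocefin as substrate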
HEK293 [11] = test: HEK cell cytotoxicity by LDH release, dose response, cytotoxicity control for IDE activator project, fluorescence, HEK cells (AID 588440); format: functional, cell-based; conditions: Homo sapiens;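 also: cytotoxicity by LDH release measuring loss of membrane integrity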
Beta-lactamase [12] = target: Beta-lactamase (Salmonella choleraesuis (strain SC-B67), UniProt Q5J463)
[13] = Vero cell cytotoxicity, dose response, cytotoxicity control for M. tuberculosis growth inhibitor project, Vero cells, purified and synthesized compounds, set 4 (AID 504854); format: functional; conditions: Mycobacterium tuberculosis
[14] = THP-1 cell cytotoxicity, cytotoxicity control, set 4 (AID 504911); format: functional; conditions: Mycobacterium tuberculosis
[15] = target: DNA dC->dU-editing enzyme APOBEC-3A (Homo sapiens, UniProt P31941); test: SAR analysis of small molecule inhibitors of APOBEC3A DNA Deaminase via a fluorescence-based single-stranded DNA deaminase assay.; format: functional; conditions: read-out: IC50_Mean
[16] = target: DNA dC->dU-editing enzyme APOBEC-3G (Homo sapiens, UniProt Q9HC16); test: APOBEC3G deaminase inhibitors, SAR follow-up, biochemical, fluorescence, single-stranded DNA substrate (AID 602136); format: functional; conditions: read-out: IC50_Mean
[17] = target: Platelet-derived growth factor receptor alpha (Homo sapiens, UniProt P16234); test: Navigating the Kinome. Panel member name: PDGFRA; format: functional
[18] = target: Vascular endothelial growth factor receptor 2 (Homo sapiens, UniProt P35968); format: functional
[19] = target: Dual specificity protein kinase CLK4 (Homo sapiens, UniProt Q9HAZ1); format: functional
[20] = target: Dual specificity tyrosine-phosphorylation-regulated kinase 1B (Homo sapiens, UniProt Q9Y463); test: Navigating the Kinome. Panel member name: DYRK1B; format: functional
[21] = target: Rho-associated protein kinase 1 (Homo sapiens, UniProt Q13464); format: functional;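 also: measured within a broad kinome-wide panel profiling many kinases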
[22] = target: Cyclin-dependent kinase 9 (Homo sapiens, UniProt P50750); format: functional;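 also: value from the CDK9 entry of a kinome-spanning kinase panel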
[23] = target: Cyclin-dependent kinase 8 (Homo sapiens, UniProt P49336); test: Navigating the Kinome. Panel member name: CDK8; format: functional
[24] = target: Fibroblast growth factor receptor 1 (Homo sapiens, UniProt P11362); format: functional
[25] = target: Protein kinase C theta type (Homo sapiens, UniProt Q04759); test: Navigating the Kinome. Panel member name: PRKCQ; format: functional
[26] = target: Serine/threonine-protein kinase Chk1 (Homo sapiens, UniProt O14757); format: functional;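 also: measured as one member of a kinome-wide kinase profiling panel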
[27] = target: Calcium/calmodulin-dependent protein kinase type II subunit alpha (Homo sapiens, UniProt Q9UQM7); test: Navigating the Kinome. Panel member name: CAMK2A; format: functional
[28] = target: Dual specificity tyrosine-phosphorylation-regulated kinase 1A (Homo sapiens, UniProt Q13627); format: functional;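 also: measured against DYRK1A as one member of a broad kinome profiling panel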
[29] = target: Hepatocyte growth factor receptor (Homo sapiens, UniProt P08581); format: functional;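 also: kinase panel profiling across the kinome, with MET as the panel member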
[30] = target: G protein-coupled receptor kinase 5 (Homo sapiens, UniProt P34947); test: Navigating the Kinome. Panel member name: GPRK5; format: functional
[31] = target: Serine/threonine-protein kinase Nek2 (Homo sapiens, UniProt P51955); format: functional
[32] = target: Tyrosine-protein kinase receptor TYRO3 (Homo sapiens, UniProt Q06418); format: functional;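 also: TYRO3 value obtained as one member of a kinome-wide profiling panel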
[33] = target: Cyclin-dependent kinase 5 (Homo sapiens, UniProt Q00535); format: functional;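 also: CDK5 measured as one member of a kinase profiling panel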
Aurora kinase B = Aurora kinase B (Homo sapiens, UniProt Q96GD4); format: functional
Aurora kinase A = Aurora kinase A (Homo sapiens, UniProt O14965); format: functional;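 also: value from the Navigating the Kinome kinase panel profiling, panel entry STK6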
Activated CDC42 kinase 1 = Activated CDC42 kinase 1 (Homo sapiens, UniProt Q07912); test: Navigating the Kinome. Panel member name: ACK1; format: functional
[34] = target: Dual specificity mitogen-activated protein kinase kinase 1 (Homo sapiens, UniProt Q02750); test: Navigating the Kinome. Panel member name: MAP2K1; format: functional
[35] = target: Vascular endothelial growth factor receptor 1 (Homo sapiens, UniProt P17948); format: functional;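 also: measured within a kinome-wide profiling panel, FLT1 as the panel member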
[36] = target: Proto-oncogene tyrosine-protein kinase receptor Ret (Homo sapiens, UniProt P07949); format: functional;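 also: measured within a kinome-wide profiling panel, RET as the panel member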
Focal adhesion kinase 1 = Focal adhesion kinase 1 (Homo sapiens, UniProt Q05397); format: functional;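 also: measured as one member of a kinome panel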
[37] = target: Inhibitor of nuclear factor kappa-B kinase subunit epsilon (Homo sapiens, UniProt Q14164); test: Navigating the Kinome. Panel member name: IKBKE; format: functional
[38] = target: Leukocyte tyrosine kinase receptor (Homo sapiens, UniProt P29376); test: Navigating the Kinome. Panel member name: LTK; format: functional
[39] = target: Macrophage colony-stimulating factor 1 receptor (Homo sapiens, UniProt P07333); format: functional;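 also: value comes from the Navigating the Kinome screening panel, CSF1R member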
[40] = target: Platelet-derived growth factor receptor beta (Homo sapiens, UniProt P09619); format: functional;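 also: value comes from a kinome panel, with PDGFRB tested as one panel member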
[41] = target: Casein kinase I isoform alpha (Homo sapiens, UniProt P48729); format: functional
[42] = target: Tyrosine-protein kinase ABL1 (Homo sapiens, UniProt P00519); format: functional
[43] = target: T3, Botulinum neurotoxin type A (Clostridium botulinum (strain Hall / ATCC 3502 / NCTC 13319 / Type A), UniProt P0DPI1); test: High-throughput multiplex microsphere dose response for inhibitors of toxin protease, specifically Botulinum neurotoxin light chain A protease, compounds from Cherry Pick 02.; format: functional; conditions: read-out: EC50_MICROM
[44] = target: T3, Botulinum neurotoxin type A; test: Confirmatory FRET assay using full length substrates for Botulinum neurotoxin light chain A protease, with Powder Set01.; format: functional
[45] = target: T3, Botulinum neurotoxin type A; test: High-throughput multiplex microsphere dose response for inhibitors of toxin protease, specifically Botulinum neurotoxin light chain A protease, compounds from Powder Set 01.; format: functional, Clostridium botulinum A str. ATCC 3502; conditions: read-out: EC50_MICROM
[46] = target: T4, Botulinum neurotoxin type F (Clostridium botulinum, UniProt P30996); test: High-throughput multiplex microsphere dose response for inhibitors of toxin protease, specifically Botulinum neurotoxin light chain F protease, compounds from Cherry Pick 01.; format: functional; conditions: read-out: EC50_MICROM
[47] = target: T3, Botulinum neurotoxin type A; test: High-throughput multiplex microsphere dose response for inhibitors of toxin protease, specifically Botulinum neurotoxin light chain A protease, compounds from Cherry Pick 01.; format: functional; conditions: read-out: EC50_MICROM
[48] = target: T4, Botulinum neurotoxin type F; test: High-throughput multiplex microsphere dose response for inhibitors of toxin protease, specifically Botulinum neurotoxin light chain F protease, compounds from Cherry Pick 02.; format: functional; conditions: read-out: EC50_MICROM
[49] = target: T2, G-protein coupled receptor 55; test: GPR55 agonists via beta-arrestin recruitment, primary screen, imaging, U2OS cells, beta-arrestin-GFP redistribution (AID 1961); format: functional
[50] = Vero cell cytotoxicity, dose response, cytotoxicity control for M. tuberculosis inhibitor project, purified and synthesized compounds, set 6 (AID 588445); format: functional; conditions: Mycobacterium tuberculosis
[51] = THP-1 cell cytotoxicity, cytotoxicity control, set 5 (AID 588443); format: functional

T3 sequence (P0DPI1 2-448 limits assumed): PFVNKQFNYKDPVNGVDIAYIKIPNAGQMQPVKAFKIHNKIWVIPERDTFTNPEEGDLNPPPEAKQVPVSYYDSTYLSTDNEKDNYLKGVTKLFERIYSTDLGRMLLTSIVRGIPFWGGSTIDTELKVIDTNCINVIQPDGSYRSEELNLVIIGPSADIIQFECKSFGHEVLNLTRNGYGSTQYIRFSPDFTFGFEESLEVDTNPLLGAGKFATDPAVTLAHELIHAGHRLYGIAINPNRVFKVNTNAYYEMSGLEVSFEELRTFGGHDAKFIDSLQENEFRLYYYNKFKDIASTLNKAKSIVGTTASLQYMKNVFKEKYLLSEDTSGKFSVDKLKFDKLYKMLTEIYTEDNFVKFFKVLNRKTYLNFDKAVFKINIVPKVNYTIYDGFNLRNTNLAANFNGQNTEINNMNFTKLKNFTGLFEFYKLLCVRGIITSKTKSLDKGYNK
Chain of Cyclin-dependent kinase 8 (P49336 whole entry): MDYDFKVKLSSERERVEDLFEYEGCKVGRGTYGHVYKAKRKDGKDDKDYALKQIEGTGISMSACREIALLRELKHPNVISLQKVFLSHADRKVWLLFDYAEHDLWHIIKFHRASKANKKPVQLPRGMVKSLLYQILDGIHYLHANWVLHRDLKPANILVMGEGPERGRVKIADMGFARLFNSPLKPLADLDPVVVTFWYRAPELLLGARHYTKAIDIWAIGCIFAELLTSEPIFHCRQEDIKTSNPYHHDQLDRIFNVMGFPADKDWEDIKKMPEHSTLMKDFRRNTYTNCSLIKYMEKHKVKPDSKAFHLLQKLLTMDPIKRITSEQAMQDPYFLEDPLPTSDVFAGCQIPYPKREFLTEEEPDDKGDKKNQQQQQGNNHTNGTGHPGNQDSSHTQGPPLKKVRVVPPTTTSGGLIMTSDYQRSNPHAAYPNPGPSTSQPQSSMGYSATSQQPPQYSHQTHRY
Chain of Beta-lactamase (Salmonella choleraesuis (strain SC-B67), UniProt Q5J463) (Q5J463 whole entry): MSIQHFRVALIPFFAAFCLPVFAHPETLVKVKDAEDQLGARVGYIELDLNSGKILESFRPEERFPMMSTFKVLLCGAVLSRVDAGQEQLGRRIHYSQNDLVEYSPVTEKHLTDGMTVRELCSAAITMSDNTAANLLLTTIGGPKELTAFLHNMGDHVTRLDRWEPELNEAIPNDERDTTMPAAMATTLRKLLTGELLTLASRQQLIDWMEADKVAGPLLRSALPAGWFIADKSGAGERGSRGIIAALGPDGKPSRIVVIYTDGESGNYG
Chain of Platelet-derived growth factor receptor alpha (P16234 whole entry): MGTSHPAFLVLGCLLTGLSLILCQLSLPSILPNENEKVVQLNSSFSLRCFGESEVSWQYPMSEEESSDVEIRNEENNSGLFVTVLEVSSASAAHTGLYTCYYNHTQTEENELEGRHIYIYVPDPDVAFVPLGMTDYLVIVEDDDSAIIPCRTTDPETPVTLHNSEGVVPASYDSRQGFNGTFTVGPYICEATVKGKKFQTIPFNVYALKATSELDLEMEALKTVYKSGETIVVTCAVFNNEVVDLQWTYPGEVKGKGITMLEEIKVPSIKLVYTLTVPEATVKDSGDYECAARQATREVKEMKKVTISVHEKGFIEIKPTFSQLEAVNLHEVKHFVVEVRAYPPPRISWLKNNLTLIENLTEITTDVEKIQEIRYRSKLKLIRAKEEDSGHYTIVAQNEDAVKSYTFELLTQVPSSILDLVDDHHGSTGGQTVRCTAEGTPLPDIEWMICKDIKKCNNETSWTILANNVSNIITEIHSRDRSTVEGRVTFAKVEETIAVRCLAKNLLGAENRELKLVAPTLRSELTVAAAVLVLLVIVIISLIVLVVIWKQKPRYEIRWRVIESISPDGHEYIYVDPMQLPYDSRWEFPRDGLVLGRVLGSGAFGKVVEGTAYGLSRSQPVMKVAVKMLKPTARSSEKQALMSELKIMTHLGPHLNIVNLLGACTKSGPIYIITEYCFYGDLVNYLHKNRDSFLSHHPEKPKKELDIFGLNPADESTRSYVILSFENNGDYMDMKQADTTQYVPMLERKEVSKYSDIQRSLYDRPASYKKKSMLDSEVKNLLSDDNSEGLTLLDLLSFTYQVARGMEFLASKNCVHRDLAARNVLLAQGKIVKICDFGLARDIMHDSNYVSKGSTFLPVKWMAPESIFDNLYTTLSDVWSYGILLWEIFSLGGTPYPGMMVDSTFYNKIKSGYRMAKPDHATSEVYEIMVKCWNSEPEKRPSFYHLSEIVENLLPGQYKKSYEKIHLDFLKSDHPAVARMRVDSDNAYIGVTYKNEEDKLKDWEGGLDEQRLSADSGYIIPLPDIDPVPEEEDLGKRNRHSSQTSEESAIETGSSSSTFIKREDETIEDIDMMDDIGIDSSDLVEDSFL
Chain of Vascular endothelial growth factor receptor 2 (P35968 whole entry): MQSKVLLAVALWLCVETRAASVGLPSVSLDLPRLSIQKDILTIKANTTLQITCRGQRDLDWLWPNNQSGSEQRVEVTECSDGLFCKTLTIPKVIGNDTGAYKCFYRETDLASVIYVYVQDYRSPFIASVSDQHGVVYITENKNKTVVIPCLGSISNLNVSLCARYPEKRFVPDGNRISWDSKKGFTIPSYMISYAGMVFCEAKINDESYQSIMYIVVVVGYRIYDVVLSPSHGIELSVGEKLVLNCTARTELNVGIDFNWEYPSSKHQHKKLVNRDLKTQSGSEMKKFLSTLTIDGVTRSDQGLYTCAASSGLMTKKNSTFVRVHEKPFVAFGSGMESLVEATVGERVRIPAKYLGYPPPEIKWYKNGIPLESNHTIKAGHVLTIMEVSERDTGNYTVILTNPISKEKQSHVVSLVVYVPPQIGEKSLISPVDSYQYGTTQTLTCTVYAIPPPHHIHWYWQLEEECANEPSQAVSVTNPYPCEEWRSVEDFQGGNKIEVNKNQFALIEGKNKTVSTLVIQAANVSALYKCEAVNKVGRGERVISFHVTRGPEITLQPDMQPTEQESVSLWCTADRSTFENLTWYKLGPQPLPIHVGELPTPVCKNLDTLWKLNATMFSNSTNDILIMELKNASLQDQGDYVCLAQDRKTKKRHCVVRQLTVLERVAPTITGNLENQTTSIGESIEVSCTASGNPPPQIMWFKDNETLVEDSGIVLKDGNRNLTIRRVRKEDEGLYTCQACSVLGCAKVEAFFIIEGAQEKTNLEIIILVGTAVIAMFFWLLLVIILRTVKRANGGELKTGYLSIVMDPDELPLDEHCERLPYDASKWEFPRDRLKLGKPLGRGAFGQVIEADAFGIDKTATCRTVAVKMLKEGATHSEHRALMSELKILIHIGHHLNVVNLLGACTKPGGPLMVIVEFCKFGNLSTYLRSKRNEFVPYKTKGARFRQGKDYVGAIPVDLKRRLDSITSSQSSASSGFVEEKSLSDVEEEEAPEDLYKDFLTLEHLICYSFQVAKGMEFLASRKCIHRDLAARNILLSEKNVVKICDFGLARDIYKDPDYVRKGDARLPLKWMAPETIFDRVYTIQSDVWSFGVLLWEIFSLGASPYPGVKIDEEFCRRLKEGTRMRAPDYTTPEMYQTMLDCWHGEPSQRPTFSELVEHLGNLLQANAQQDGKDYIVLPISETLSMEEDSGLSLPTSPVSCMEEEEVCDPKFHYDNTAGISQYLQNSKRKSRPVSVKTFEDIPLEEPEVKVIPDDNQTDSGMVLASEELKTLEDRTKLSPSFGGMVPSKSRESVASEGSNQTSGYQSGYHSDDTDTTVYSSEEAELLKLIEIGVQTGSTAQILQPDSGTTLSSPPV
Chain of Dual specificity tyrosine-phosphorylation-regulated kinase 1B (Q9Y463 whole entry): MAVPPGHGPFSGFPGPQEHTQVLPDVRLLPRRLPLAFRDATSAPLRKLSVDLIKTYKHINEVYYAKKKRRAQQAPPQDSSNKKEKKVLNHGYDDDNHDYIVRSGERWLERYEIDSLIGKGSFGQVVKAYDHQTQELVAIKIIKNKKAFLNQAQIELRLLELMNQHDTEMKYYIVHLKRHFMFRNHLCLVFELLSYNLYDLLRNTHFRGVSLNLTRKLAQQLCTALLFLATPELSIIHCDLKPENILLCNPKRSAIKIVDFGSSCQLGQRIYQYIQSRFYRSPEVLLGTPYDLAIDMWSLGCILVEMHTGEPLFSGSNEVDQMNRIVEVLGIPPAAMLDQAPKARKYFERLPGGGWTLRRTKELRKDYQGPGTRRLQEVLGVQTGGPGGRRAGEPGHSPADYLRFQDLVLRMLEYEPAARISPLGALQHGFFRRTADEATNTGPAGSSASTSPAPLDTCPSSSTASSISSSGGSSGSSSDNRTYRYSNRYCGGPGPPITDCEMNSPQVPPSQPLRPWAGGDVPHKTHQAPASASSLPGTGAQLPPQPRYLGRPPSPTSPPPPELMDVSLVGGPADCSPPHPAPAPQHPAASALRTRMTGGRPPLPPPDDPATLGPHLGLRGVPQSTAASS
T4 sequence (P30996 1-436 limits assumed): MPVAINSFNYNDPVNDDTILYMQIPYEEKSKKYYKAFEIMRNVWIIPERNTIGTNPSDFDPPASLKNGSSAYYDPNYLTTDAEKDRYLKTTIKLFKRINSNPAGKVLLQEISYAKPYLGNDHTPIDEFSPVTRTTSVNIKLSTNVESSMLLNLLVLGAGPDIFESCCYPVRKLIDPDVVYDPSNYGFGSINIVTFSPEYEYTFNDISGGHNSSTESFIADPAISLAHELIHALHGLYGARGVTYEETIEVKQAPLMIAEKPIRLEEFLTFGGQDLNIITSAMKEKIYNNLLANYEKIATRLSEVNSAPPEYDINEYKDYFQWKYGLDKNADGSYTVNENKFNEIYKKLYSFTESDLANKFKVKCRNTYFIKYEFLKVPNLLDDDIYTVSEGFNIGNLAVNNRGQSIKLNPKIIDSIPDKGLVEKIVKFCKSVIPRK
T2 sequence (Q9Y2T6 whole entry): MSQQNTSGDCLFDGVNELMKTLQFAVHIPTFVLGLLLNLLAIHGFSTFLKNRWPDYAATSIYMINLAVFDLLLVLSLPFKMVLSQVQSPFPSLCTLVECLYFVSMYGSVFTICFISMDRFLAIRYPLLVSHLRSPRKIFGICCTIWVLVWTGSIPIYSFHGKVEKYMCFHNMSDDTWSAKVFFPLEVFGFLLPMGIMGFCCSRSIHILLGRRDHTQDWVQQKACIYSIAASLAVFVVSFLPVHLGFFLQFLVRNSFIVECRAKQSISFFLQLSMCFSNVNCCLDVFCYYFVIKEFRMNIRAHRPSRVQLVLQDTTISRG

With `CN(C)c1ccc(-c2c(-c3ccc4[nH]nc(N)c4c3)nnn2Cc2ccccc2)cc1` the Ki [1] was > 3.16 µM (inactive), the Ki [2] was 0.0251 µM (active) and the Ki [3] was 0.631 µM (active). The Ki [4] was 0.0794 µM (active) and the Ki [5] was > 10 µM (inactive).
In the case of `CCN(CC)C1=CC2=CC(=C(C#N)C#N)CCC2CC1` (stereo not given), the EC50 (Insulin-degrading enzyme [6]) is reported as > 54.7 µM (inactive), the IC50 [7] is reported as 3 µM (active) and the EC50 (HEK293 [8]) is reported as > 54.7 µM (inactive). The EC50 (Insulin-degrading enzyme [9]) was > 54.7 µM (inactive), the IC50 (Beta-lactamase [10]) was 3.32 µM (active) and the IC50 (HEK293 [11]) was > 89.2 µM (inactive). The IC50 (Beta-lactamase [12]) was 1.34 µM (active).
In the case of `O=C(CSc1nc2c(c(=O)[nH]1)CCC2)NC1CCCCC1`, the CC50 [13] is reported as > 100 µM (active) and the CC50 [14] is reported as > 100 µM (active).
With `CCn1c(SCC(=O)NCc2ccco2)nnc1-c1ccccc1O` the IC50 [15] was > 99 µM (inactive) and the IC50 [16] was > 99 µM (inactive).
In the case of `c1ccc(C2CCc3[nH]ncc32)cc1` (stereo not given), the Ki [17] is reported as 79.4 µM (active), the Ki [18] is reported as 50.1 µM (active) and the Ki [19] is reported as 12.6 µM (active). For the same compound, the Ki [20] was 39.8 µM (active), the Ki [21] was 20 µM (active) and the Ki [22] was 31.6 µM (active). For the same compound, the Ki [3] was 39.8 µM (active) and the Ki [23] was 39.8 µM (active).
With `CC(C)c1cc(=O)[nH]c2[nH][nH]c(=O)c12` the Ki [24] was 63.1 µM (active), the Ki [25] was > 100 µM (inactive) and the Ki [26] was 12.6 µM (active). For the same compound, the Ki [17] was 63.1 µM (active), the Ki [27] was 63.1 µM (active) and the Ki [18] was > 100 µM (inactive). For the same compound, the Ki [28] was 15.8 µM (active), the Ki [29] was 63.1 µM (active) and the Ki [19] was 5.01 µM (active). The Ki [30] was 20 µM (active), the Ki [20] was 15.8 µM (active) and the Ki [31] was 63.1 µM (active). The Ki [32] was 31.6 µM (active), the Ki [33] was 15.8 µM (active) and the Ki (Aurora kinase B) was 63.1 µM (active). The Ki [3] was > 50.1 µM (inactive), the Ki (Aurora kinase A) was 15.8 µM (active) and the Ki (Activated CDC42 kinase 1) was 25.1 µM (active). For the same compound, the Ki [34] was 100 µM (active), the Ki [35] was 79.4 µM (active) and the Ki [36] was 31.6 µM (active). For the same compound, the Ki (Focal adhesion kinase 1) was 79.4 µM (active), the Ki [37] was 63.1 µM (active) and the Ki [38] was 15.8 µM (active). For the same compound, the Ki [39] was 10 µM (active), the Ki [40] was > 79.4 µM (inactive) and the Ki [41] was 20 µM (active). For the same compound, the Ki [4] was 100 µM (active), the Ki [42] was 63.1 µM (active) and the Ki [23] was 31.6 µM (active).
In the case of `COc1ccccc1[N+]1=N[C-](c2ccc([N+](=O)[O-])cc2)CC1c1ccccc1` (stereo not given), the EC50 [43] is reported as 1 µM (active), the EC50 [44] is reported as 0.2 µM (active) and the EC50 [45] is reported as 1.4 µM (active). The EC50 [46] was 1.8 µM (active), the IC50 (Beta-lactamase [10]) was > 59.6 µM (inactive) and the EC50 [47] was 1.7 µM (active). For the same compound, the IC50 (Beta-lactamase [12]) was > 59.6 µM (inactive), the EC50 [48] was 0.4 µM (active) and the EC50 [49] was < 0.5 µM (active).
With `CCC(C)NC(=O)CSc1nc2ccccc2c(=O)[nH]1` (stereo not given) the CC50 [50] was > 100 µM (active) and the CC50 [51] was > 100 µM (active).
